Series [1] is described as follows: Compound was evaluated for the […] glutamate decarboxylase at 2.5 mM dose; No significant activation.
Series [2] is described as follows: Compound was evaluated for its ability to increase the […] glutamate decarboxylase at 2.5 mM dose. Also noted: scale not given: the % may be the effect or the level left.
A short description of series [3]: Half life at a concentration 1 mM. The class given is ADME.

Among the data in ChEMBL document CHEMBL1130587, “General synthesis of 3-substituted alkenyl GABA as potential anticonvulsants” (Bioorg Med Chem Lett, 1998) are Activity and half-life values, retold here.

Active and inactive are the calls of the source. The calls are words filed in the database; no cut-off is given here.

`CC/C=C/C(CN)CC(=O)O` (configuration not stated): the result in series [1] was inactive.
The same measure, in the same setting: in the case of `CCC/C=C\C(CN)CC(=O)O` (configuration not stated) it was “inactive”; in that of `CC(C)/C=C\C(CN)CC(=O)O` (configuration not stated), “inactive”; in that of `C/C=C(\C)C(CN)CC(=O)O` (configuration not stated), “inactive”.
In the case of `CC(C)CC(CN)CC(=O)O` (configuration not stated), the Activity in series [2] was 50%.
As to `CC(C)=CC(CN)CC(=O)O` (configuration not stated), the outcome in series [1] was inactive.
For the compound `C=CC(CN)CC(=O)O` (configuration not stated), in series [3], the half-life (in general, how long it takes for the measured level to halve) at 1000 µM is 39 min. In series [1], the outcome was inactive.
As to `CC/C=C\C(CN)CC(=O)O` (configuration not stated), the outcome in series [1] was inactive.
On to `C/C=C/C(CN)CC(=O)O` (configuration not stated), for which, in series [1], the outcome was inactive.
In turn, `C=CC(N)CCC(=O)O` (configuration not stated) [VIGABATRIN] registered a half-life at 1000 µM in series [3] of 0.3 min.
As for `C/C=C\C(CN)CC(=O)O` (configuration not stated), the outcome in series [1] was inactive.
